From patent publication US12404265B2, “Substituted pyridine derivatives as SARM1 inhibitors” (Nura Bio, Inc., priority 2020, dated 2025) come the findings set out here.

This assay concerns the target T1, human SARM1(50-724) (Homo sapiens, UniProt Q6SZW1).
T1 construct: 40 nM human SARM1(50-724)
T1 sequence (Q6SZW1 50-724): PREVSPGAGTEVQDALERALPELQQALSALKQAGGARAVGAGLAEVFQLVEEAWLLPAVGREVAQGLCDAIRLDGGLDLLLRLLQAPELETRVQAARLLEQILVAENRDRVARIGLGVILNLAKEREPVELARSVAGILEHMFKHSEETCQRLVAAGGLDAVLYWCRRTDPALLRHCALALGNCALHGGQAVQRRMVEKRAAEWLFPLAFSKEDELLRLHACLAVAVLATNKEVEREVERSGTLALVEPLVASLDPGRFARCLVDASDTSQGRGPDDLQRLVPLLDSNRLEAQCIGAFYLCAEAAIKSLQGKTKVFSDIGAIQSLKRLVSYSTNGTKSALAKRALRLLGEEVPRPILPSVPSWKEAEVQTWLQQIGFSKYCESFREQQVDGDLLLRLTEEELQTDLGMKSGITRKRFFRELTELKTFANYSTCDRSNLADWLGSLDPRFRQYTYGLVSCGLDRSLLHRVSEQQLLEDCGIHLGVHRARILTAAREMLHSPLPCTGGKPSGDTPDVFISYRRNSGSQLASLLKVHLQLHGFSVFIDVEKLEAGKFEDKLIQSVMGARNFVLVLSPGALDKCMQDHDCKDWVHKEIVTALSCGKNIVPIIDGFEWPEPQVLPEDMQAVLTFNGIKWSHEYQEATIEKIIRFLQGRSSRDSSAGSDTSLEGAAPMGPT
Kind of assay: SARM1 NADase biochemical assay (HPLC of NAD and NAM). As to conditions: 40 nM human SARM1(50-724), 0.3 mM NMN, 20 μM NAD, 60 minutes room temperature; dose-response from 100 μM, 1:3 dilution. Here is the method:
Each reaction was run at a volume of 20 μL containing 50 μM compound (dissolved in DMSO; final concentration of DMSO is 1% v/v), 40 nM human SARM1(50-724), 0.3 mM NMN, 20 μM NAD, 1 mM TCEP, 25 mM HEPES pH 7.4, 10 mM KCl and 10 mM MgCl2. The reaction was incubated at room temperature for 60 minutes and quenched with 20 μL of 0.4% formic acid. The samples were run on Agilent HPLC 1260 Infinity II with Synergi 2.5 μM Fusion-RP 100 Å (100×3.0 mm) LC column from Phenomenex. Total run time for each sample was 4 minutes. The run was isocratic with 1.5% methanol in 40 mM ammonium acetate pH 6.0. Samples were run at a flow rate of 0.8 mL/min at 55° C. Peak areas of NAD and NAM were determined using OpenLAB CDS (Chem Station edition) software. For dose-response, the compound was diluted serially 1:3 in DMSO and added to the reaction starting at a final compound concentration of 100 μM in 1% DMSO.

A value given as a limit tells only on which side of the number the result lay.

On to `N#Cc1c(F)cc(CC2CCN(c3cc(-c4ccncc4)n[nH]3)C2=O)cc1F` (centres unmarked) [Example 146, 2,6-Difluoro-4-((2-oxo-1-(3-(pyridin-4-yl)-1H-pyrazol-5-yl)pyrrolidin-3-yl)methyl)benzonitrile], for which the IC50 was under 1 µM.

For the compound `O=C(CCc1ccc(Cl)cc1)Nc1[nH]nc(-c2ccncc2)c1Br` [Example 147, N-(4-Bromo-3-(pyridin-4-yl)-1H-pyrazol-5-yl)-3(4-chlorophenyl)propanamide], the IC50 is under 1 µM.

As to `Cc1c(NC(=O)NCc2ccc(Cl)cc2)cnn1-c1ccncc1` [Example 144, 1-(4-Chlorobenzyl)-3-(5-methyl-1-(pyridin-4-yl)-1H-pyrazol-4-yl)urea], the IC50 is under 1 µM.

Regarding `Cc1c(-c2ccncc2)n[nH]c1NC(=O)CCc1cc(F)c(Cl)c(F)c1` [Example 48, 3-(4-Chloro-3,5-difluorophenyl)-N-(4-methyl-3-(pyridin-4-yl)-1H-pyrazol-5-yl)propanamide], the IC50 is under 1 µM.

`Cc1c(-c2ccncc2)n[nH]c1NC(=O)C(F)(F)Cc1ccc(Cl)cc1` [Example 80, 3-(4-Chlorophenyl)-2,2-difluoro-N-(4-methyl-3-(pyridin-4-yl)-1H-pyrazol-5-yl)propanamide]: the IC50 is 1 to 10 µM.

Consider `Cc1c(-c2ccncc2)n[nH]c1NC(=O)C(F)Cc1cc(F)c(Cl)c(F)c1` (racemic) [Example 71, (rac)-3-(4-Chloro-3,5-difluorophenyl)-2-fluoro-N-(4-methyl-3-(pyridin-4-yl)-1H-pyrazol-5-yl)propanamide], for which the IC50 is under 1 µM.

Regarding `O=C(CCc1ccc2c(c1)OCO2)Nc1cc(-c2ccncc2)n[nH]1` [Example 99, 3-(Benzo[d][1,3]dioxol-5-yl)-N-(3-(pyridin-4-yl)-1H-pyrazol-5-yl)propanamide], the IC50 lay in the range of 1 to 10 µM.

Consider `Cc1c(NC(=O)C(O)Cc2ccc(Cl)cc2)cnn1-c1ccncc1` (racemic) [Example 150, (rac)-3-(4-Chlorophenyl)-2-hydroxy-N-(5-methyl-1-(pyridin-4-yl)-1H-pyrazol-4-yl)propanamide], for which the IC50 was in the range of 1 to 10 µM.

With `Cc1c(-c2ccncc2)n[nH]c1NC(=O)CCc1cc(Cl)c(Cl)c(Cl)c1` [Example 47, N-(4-Methyl-3-(pyridin-4-yl)-1H-pyrazol-5-yl)-3-(3,4,5-trichlorophenyl)propanamide], the IC50 was under 1 µM.

In the case of `Cc1c(-c2ccncc2)n[nH]c1NC(=O)N(C)Cc1ccc(Cl)cc1` [Example 131, 1-(4-Chlorobenzyl)-1-methyl-3-(4-methyl-3-(pyridin-4-yl)-1H-pyrazol-5-yl)urea], the IC50 lay in the range of 1 to 10 µM.

Take `O=C(CCc1ccc(Cl)cc1)Nc1[nH]nc(-c2ccncc2)c1CO` [Example 116, 3-(4-Chlorophenyl)-N-(4-(hydroxymethyl)-3-(pyridin-4-yl)-1H-pyrazol-5-yl)propanamide]: the IC50 is under 1 µM.

Turning to `O=C(CCc1cccc(Cl)c1)Nc1cnn(-c2ccncc2)c1Cl` [Example 126, N-[5-Chloro-1-(pyridin-4-yl)-1H-pyrazol-4-yl]-3-(3-chlorophenyl)propanamide], the IC50 is 1 to 10 µM.

In the case of `N[C@H](Cc1ccc(Cl)cc1)C(=O)Nc1cc(-c2ccncc2)n[nH]1` [Example 151, (R)-2-Amino-3-(4-chlorophenyl)-N-(3-(pyridin-4-yl)-1H-pyrazol-5-yl)propanamide], the IC50 is under 1 µM.

For `Cn1c(NC(=O)CCc2ccc(Cl)cc2)cnc1-c1ccncc1` [Example 105, 3-(4-Chlorophenyl)-N-(1-methyl-2-(pyridin-4-yl)-1H-imidazol-5-yl)propanamide], the IC50 is under 1 µM.

On to `Cc1c(-c2ccncc2)n[nH]c1N1C(=O)CC(c2ccc(Cl)cc2)CC1=O` (racemic) [Example 157, (rac)-4-(4-Chlorophenyl)-1-(4-methyl-3-(pyridin-4-yl)-1H-pyrazol-5-yl)piperidine-2,6-dione], for which the IC50 lay in the range of 1 to 10 µM.

As to `CCc1c(-c2ccncc2)n[nH]c1NC(=O)CCc1cc(F)c(Cl)c(F)c1` [Example 13, 3-(4-Chloro-3,5-difluorophenyl)-N-(4-ethyl-3-(pyridin-4-yl)-1H-pyrazol-5-yl)propanamide], the IC50 is under 1 µM.

In the case of `O=C(CCc1ccc(Cl)c(F)c1)Nc1[nH]nc(-c2ccncc2)c1CO` [Example 118], the IC50 is under 1 µM.

With `CCc1c(-c2ccncc2)n[nH]c1NC(=O)CCc1cc(F)c(C#N)c(F)c1` [Example 15, 3-(4-Cyano-3,5-difluorophenyl)-N-(4-ethyl-3-(pyridin-4-yl)-1H-pyrazol-5-yl)propanamide], the IC50 was under 1 µM.

With `O=C(NCc1cc(F)c(F)c(F)c1)Nc1[nH]nc(-c2ccncc2)c1Cl` [Example 145, 1-(4-Chloro-3-(pyridin-4-yl)-1H-pyrazol-5-yl)-3-(3,4,5-trifluorobenzyl)urea], the IC50 is under 1 µM.

As for `Cc1c(-c2ccncc2)n[nH]c1NC(=O)COc1ccc(Cl)cc1` [Example 62, 2-(4-Chlorophenoxy)-N-(4-methyl-3-(pyridin-4-yl)-1H-pyrazol-5-yl)acetamide], the IC50 was under 1 µM.

On to `Cc1c(-c2ccncc2)n[nH]c1NC(=O)CCc1cc(Cl)cs1` [Example 73], for which the IC50 is under 1 µM.

For the compound `Cc1c(-c2ccncc2)n[nH]c1NC(=O)CCc1ccc2c(c1)OCO2` [Example 20, 3-(Benzo[d][1,3]dioxol-5-yl)-N-(4-methyl-3-(pyridin-4-yl)-1H-pyrazol-5-yl)propanamide], the IC50 was under 1 µM.

Turning to `Cc1c(-c2ccncc2)n[nH]c1NC(=O)CCc1ccc(Cl)s1` [Example 74], the IC50 was under 1 µM.

As to `Cc1c(-c2ccncc2)n[nH]c1NC(=O)CCc1ccc(F)cc1` [Example 33, 3-(4-Fluorophenyl)-N-(4-methyl-3-(pyridin-4-yl)-1H-pyrazol-5-yl)propanamide], the IC50 was under 1 µM.

On to `Cc1c(-c2ccncc2)n[nH]c1NC(=O)CC1CCc2cc(Cl)ccc21` (centres unmarked) [Example 67, 2-(5-Chloro-2,3-dihydro-1H-inden-1-yl)-N-[4-methyl-3-(pyridin-4-yl)-1H-pyrazol-5-yl]acetamide], for which the IC50 is under 1 µM.

Take `Cc1c(-c2ccncc2)n[nH]c1N(C)C(=O)CCc1ccc(Cl)cc1` [Example 139]: the IC50 was under 1 µM.

For the compound `Cc1c(-c2ccncc2)n[nH]c1NC(=O)CCc1ccc(OC(F)F)cc1` [Example 55, 3-(4-(Difluoromethoxy)phenyl)-N-(4-methyl-3-(pyridin-4-yl)-1H-pyrazol-5-yl)propanamide], the IC50 was under 1 µM.

With `Cc1c(-c2ccncc2)n[nH]c1NC(=O)NCc1ccc(F)cc1` [Example 142, 1-[(4-Fluorophenyl)methyl]-3-[4-methyl-3-(pyridin-4-yl)-1H-pyrazol-5-yl]urea], the IC50 is under 1 µM.

As to `Cc1c(-c2ccncc2)n[nH]c1NC(=O)NCc1ccc(Cl)nc1` [Example 143, 1-[(6-Chloropyridin-3-yl)methyl]-3-[4-methyl-3-(pyridin-4-yl)-1H-pyrazol-5-yl]urea], the IC50 is under 1 µM.

For the compound `Cc1c(-c2ccncc2)n[nH]c1NC(=O)CCc1ccc(Cl)cc1F` [Example 41, 3-(4-Chloro-2-fluorophenyl)-N-(4-methyl-3-(pyridin-4-yl)-1H-pyrazol-5-yl)propanamide], the IC50 was under 1 µM.

For the compound `Cc1c(-c2ccncc2)n[nH]c1NC(=O)CCc1cc(F)c(C#N)c(F)c1` [Example 65, 3-(4-Cyano-3,5-difluorophenyl)-N-(4-methyl-3-(pyridin-4-yl)-1H-pyrazol-5-yl)propanamide], the IC50 was under 1 µM.

Take `Cc1c(-c2ccncc2)n[nH]c1NC(=O)CCc1ccc(C(F)(F)F)cc1` [Example 32, N-(4-Methyl-3-(pyridin-4-yl)-1H-pyrazol-5-yl)-3-(4-(trifluoromethyl)phenyl)propanamide]: the IC50 was under 1 µM.

In the case of `Cc1cnccc1-c1n[nH]c(NC(=O)CCc2ccc(Cl)cc2)c1C` [Example 110], the IC50 was under 1 µM.

As to `S=C(NCc1ccc(Cl)cc1)Nc1cnn(-c2ccncc2)c1` [Example 160, 1-(4-Chlorobenzyl)-3-(1-(pyridin-4-yl)-1H-pyrazol-4-yl)thiourea], the IC50 was in the range of 1 to 10 µM.

Take `CCc1c(-c2ccncc2)n[nH]c1NC(=O)CCc1ccc(C#N)c(F)c1` [Example 16, 3-(4-Cyano-3-fluorophenyl)-N-(4-ethyl-3-(pyridin-4-yl)-1H-pyrazol-5-yl)propanamide]: the IC50 was under 1 µM.

The term IC50 denotes the midpoint of a concentration-inhibition curve.
